{"source": "ChEMBL document CHEMBL1159191", "about": "“2-alkyl-4-ethyl-5-[6-methyl-6-(2H-tetrazol-5-yl)heptyloxy]phenol leukotriene B4 receptor antagonists” (Bioorg Med Chem Lett, 1995)", "key": {"Cavia porcellus": {"species_on_record": "Cavia porcellus", "experiment": "Compound was evaluated for antagonism of LTB4 effect on guinea pig lung strip contraction", "type": "functional"}, "[1]": {"molecular_target": "Leukotriene B4 receptor 1 (Homo sapiens, UniProt Q15722)", "sequence (Q15722 whole entry)": "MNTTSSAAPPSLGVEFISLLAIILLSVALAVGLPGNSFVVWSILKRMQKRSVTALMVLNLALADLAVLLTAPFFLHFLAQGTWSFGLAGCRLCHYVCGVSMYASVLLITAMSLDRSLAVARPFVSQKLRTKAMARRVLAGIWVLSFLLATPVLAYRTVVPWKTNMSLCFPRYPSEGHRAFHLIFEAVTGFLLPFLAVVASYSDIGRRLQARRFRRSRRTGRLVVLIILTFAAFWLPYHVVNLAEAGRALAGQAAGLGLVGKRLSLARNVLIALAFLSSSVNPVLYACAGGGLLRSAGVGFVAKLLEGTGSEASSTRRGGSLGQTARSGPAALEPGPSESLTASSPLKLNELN", "experiment": "Binding affinity against human neutrophil Receptor."}, "Leukotriene B4 receptor": {"molecular_target": "Leukotriene B4 receptor (Homo sapiens, UniProt Q9NPC1+Q15722)", "experiment": "LTB4-induced up-regulation of CD11b/CD18 in human neutrophils", "type": "functional"}}, "data": [{"smiles": "CCOc1cc(CC)c(OCCCCCC(C)(C)c2nn[nH]n2)cc1O", "values": [{"measurement": "Kb", "setting": "Cavia porcellus", "result": 264, "unit": "nM"}]}, {"smiles": "CCCc1cc(CC)c(OCCCCCC(C)(C)c2nn[nH]n2)cc1O", "values": [{"measurement": "Ki", "setting": "[1]", "result": 5.53, "unit": "nM"}, {"measurement": "Kb", "setting": "Cavia porcellus", "result": 34, "unit": "nM"}]}, {"smiles": "CCCCc1cc(CC)c(OCCCCCC(C)(C)c2nn[nH]n2)cc1O", "values": [{"measurement": "Kb", "setting": "Cavia porcellus", "result": 53, "unit": "nM"}]}, {"smiles": "CCCCCOc1cc(CC)c(OCCCCCC(C)(C)c2nn[nH]n2)cc1O", "values": [{"measurement": "Kb", "setting": "Cavia porcellus", "result": 216, "unit": "nM"}]}, {"smiles": "CCc1cc(CC)c(OCCCCCC(C)(C)c2nn[n-]n2)cc1O.[Na+]", "values": [{"measurement": "Ki", "setting": "[1]", "result": 5.14, "unit": "nM"}, {"measurement": "Kb", "setting": "Cavia porcellus", "result": 167, "unit": "nM"}, {"measurement": "IC50", "setting": "Leukotriene B4 receptor", "result": 179, "unit": "nM"}]}, {"smiles": "CCCCCCc1cc(CC)c(OCCCCCC(C)(C)c2nn[n-]n2)cc1O.[Na+]", "values": [{"measurement": "Ki", "setting": "[1]", "result": 28.4, "unit": "nM"}, {"measurement": "Kb", "setting": "Cavia porcellus", "result": 688, "unit": "nM"}, {"measurement": "IC50", "setting": "Leukotriene B4 receptor", "result": 878, "unit": "nM"}]}, {"smiles": "CCc1cc(OC)c(O)cc1OCCCCCC(C)(C)c1nn[nH]n1", "values": [{"measurement": "Kb", "setting": "Cavia porcellus", "result": 222, "unit": "nM"}]}]}
